Laboratory results taken from publication PMC8788354 (Journal of Enzyme Inhibition and Medicinal Chemistry, 2022).
Read-outs that look alike come from different tables or passages of the source. Numbered stars: 1 amine (or outer) side, 2 acyl side, 3 side chain; on linkers, the order of the positions; unused ones are H or OH. Bridge positions count the residues as written; N and C are the ends. Square brackets hold non-standard residues; d marks the D form. Peptide text beside a SMILES is read from it. I, II: the chains in the order shown. Actinocin(9to1) = Cc1c2oc3c(C)ccc(C(=O)[*:1])c3nc-2c(C(=O)[*:2])c(N)c1=O; NMeV = CN[C@H](C(=O)O)C(C)C; Sar = CNCC(=O)O

Tests used:
[1] = test system: PC-3 (human prostate cancer cell line); assay: cells; assay type: cell-based; conditions: for IC50: SRB assay, 72 h exposure, read-out: Anticancer activity IC50 (nM) ± SD, PC-3
[2] = test system: U-87MG cells (glioblastoma cell line); assay: cells; assay type: cell-based, human; conditions: SRB assay, 72 h exposure, read-out: Anticancer activity IC50 (nM) ± SD, U-87
in vitro = conditions: human
[3] = test system: SKBR-3 (human breast cancer cell line); assay: cells; assay type: cell-based; conditions: SRB assay, 72 h exposure, read-out: Anticancer activity IC50 (nM) ± SD, SKBR-3
[4] = test system: SKOV-3 (ovarian cancer cell line); assay: cells; assay type: cell-based, human; conditions: for IC50: SRB assay, 72 h exposure, read-out: Anticancer activity IC50 (nM) ± SD, SKOV-3
[5] = Toxicity IC50 (nM) ± SD, HDF, healthy cell line HDF, SRB assay, 72 h exposure

| SMILES | IC50 ([1]; Homo sapiens) [nM] | IC50 ([2]; Homo sapiens, U-87 MG) [nM] | IC50 ([3]; Homo sapiens, SK-BR-3, 72 h) [nM] | IC50 ([4]; Homo sapiens, SK-OV-3) [nM] | IC50 (in vitro; [5]) [nM] | other results |
| --- | --- | --- | --- | --- | --- | --- |
| Nc1ccn([C@@H]2O[C@H](CO)[C@@H](O)[C@@H]2O)c(=O)n1 [C, cytarabine, reference compound] | 810 ± 10 | 850 ± 31 | 870 ± 10 | 990 ± 110 | – | IC50 at 72 h (in vitro; Human Dermal Fibroblasts (HDF) cells, Toxicity IC50 (nM) ± SD, HDF, healthy cell line HDF, SRB assay, 72 h exposure): 5940 ± 70 nM |
| COc1cc2c(c(OC)c1OC)-c1ccc(=O)c(OCc3cn(C4CC(n5cc(C)c(=O)[nH]c5=O)OC4CO)nn3)cc1C(NC(C)=O)CC2 (stereo not shown) [Compound 5e] | 3.51 ± 0.09 | 3.05 ± 0.01 | 3.71 ± 0.05 | 3.74 ± 0.03 | 6.22 ± 0.32 | – |
| COc1cc2c(c(OC)c1OC)-c1ccc(OCc3ccc(/C=C/c4ccc(CNC5=C6C[C@@H](C)C[C@H](OC)[C@H](O)[C@@H](C)/C=C(\C)[C@H](OC(N)=O)[C@@H](OC)/C=C\C=C(/C)C(=O)NC(=CC5=O)C6=O)cc4)cc3)c(=O)cc1[C@@H](NC(C)=O)CC2 [Compound 8d] | 11 ± 0.44 | 10.8 ± 0.74 | 11.4 ± 0.15 | 10.52 ± 0.05 | 17.9 ± 1.04 | – |
| COc1cc2c(c(OC)c1OC)-c1ccc(OC/C=C/c3ccccc3)c(=O)cc1[C@@H](NC(C)=O)CC2 [Compound 4c] | 3.19 ± 0.01 | 3.82 ± 0.22 | 3.46 ± 0.07 | 3.05 ± 0.03 | 4.94 ± 0.15 | – |
| C=CCOc1ccc2c(cc1=O)[C@@H](NC(C)=O)CCc1cc(OC)c(OC)c(OC)c1-2 [Compound 4d] | 1.71 ± 0.03 | 1.78 ± 0.03 | 1.73 ± 0.11 | 1.73 ± 0.07 | 2.39 ± 0.17 | – |
| CO[C@@]12[C@H](COC(N)=O)C3=C(C(=O)C(C)=C(N)C3=O)N1C[C@@H]1N[C@@H]12 [MitC, mitomycin C, reference compound] | – | 650 ± 40 | – | – | – | IC50 ([3]; Homo sapiens, SK-BR-3): 670 ± 10 nM |
| Cc1c2oc3c(C)ccc(C(=O)N[C@@H]4C(=O)N[C@H](C(C)C)C(=O)N5CCC[C@H]5C(=O)N(C)CC(=O)N(C)[C@@H](C(C)C)C(=O)O[C@@H]4C)c3nc-2c(C(=O)N[C@@H]2C(=O)N[C@H](C(C)C)C(=O)N3CCC[C@H]3C(=O)N(C)CC(=O)N(C)[C@@H](C(C)C)C(=O)O[C@@H]2C)c(N)c1=O [ActD, actinomycin D, reference compound] (I: T[dV]P[Sar][NMeV] / II: T[dV]P[Sar][NMeV]; ester I:1-I:C, II:1-II:C; linker I:N-II:N via Actinocin(9to1)) | – | 1610 ± 90 | – | – | – | IC50 ([3]; Homo sapiens, SK-BR-3): 1140 ± 60 nM |
| C#CCOc1cc2c(ccc1=O)-c1c(cc(OC)c(OC)c1OC)CC[C@@H]2NC(C)=O [Compound 3f] | 1.05 ± 0.03 | 1.14 ± 0.01 | 1.37 ± 0.02 | 1.05 ± 0.07 | 2.83 ± 0.44 | Selectivity index (SI), PC-3 ([1]; SI = IC50 HDF/IC50 PC-3): ~2.7; Selectivity index (SI), SKOV-3 ([4]; SI = IC50 HDF/IC50 SKOV-3): ~2.7 |
| COc1cc2c(c(OC)c1OC)-c1ccc(OC)c(=O)cc1[C@@H](NC(C)=O)CC2 [Compound 1, colchicine, reference compound] | – | – | – | – | – | IC50 (in vitro): 2.37 ± 0.15 nM |
| COc1cc2c(c(OC)c1OC)-c1ccc(=O)c(OCc3ccc(/C=C/c4ccc5ccccc5c4)cc3)cc1[C@@H](NC(C)=O)CC2 [Compound 7a] | 8.61 ± 0.38 | 8.63 ± 0.14 | 8.02 ± 0.08 | 8.54 ± 0.71 | 8.19 ± 0.92 | – |
| CCOC(=O)COc1cc2c(ccc1=O)-c1c(cc(OC)c(OC)c1OC)CC[C@@H]2NC(C)=O [Compound 3g] | 1.62 ± 0.29 | 1.41 ± 0.03 | 1.31 ± 0.08 | 1.37 ± 0.01 | 2.72 ± 0.03 | – |
| COc1cc2c(c(OC)c1OC)-c1ccc(=O)c(OCc3ccc(/C=C/c4ccc(CNC5=C6C[C@@H](C)C[C@H](OC)[C@H](O)[C@@H](C)/C=C(\C)[C@H](OC(N)=O)[C@@H](OC)/C=C\C=C(/C)C(=O)NC(=CC5=O)C6=O)cc4)cc3)cc1[C@@H](NC(C)=O)CC2 [Compound 7d] | 7.49 ± 0.32 | 7.06 ± 0.44 | 7.22 ± 0.19 | 7.04 ± 0.15 | 9.04 ± 0.29 | – |
| COc1cc2c(c(OC)c1OC)-c1ccc(=O)c(OC/C=C/c3ccccc3)cc1[C@@H](NC(C)=O)CC2 [Compound 3c] | 3.11 ± 0.91 | 3.38 ± 0.05 | 3.09 ± 0.02 | 3.74 ± 0.18 | 5.24 ± 0.26 | – |
| COc1cc2c(c(OC)c1OC)-c1ccc(=O)c(OCc3cn(CCCNC4=C5C[C@@H](C)C[C@H](OC)[C@H](O)[C@@H](C)/C=C(\C)[C@H](OC(N)=O)[C@@H](OC)/C=C\C=C(/C)C(=O)NC(=CC4=O)C5=O)nn3)cc1[C@@H](NC(C)=O)CC2 [Compound 5f] | 8.38 ± 0.09 | 8.25 ± 0.11 | 8.91 ± 0.17 | 8.05 ± 0.58 | 10.4 ± 0.39 | – |
| COc1cc2c(c(OC)c1OC)-c1ccc(=O)c(OCc3cn(Cc4ccc([N+](=O)[O-])cc4)nn3)cc1[C@@H](NC(C)=O)CC2 [Compound 5c] | 2.09 ± 0.33 | 2.04 ± 0.08 | 2.18 ± 0.02 | 2.94 ± 0.71 | 3.12 ± 0.41 | – |
| COc1cc2c(c(OC)c1OC)-c1ccc(=O)c(OCc3cn(Cc4ccc(C#N)cc4)nn3)cc1[C@@H](NC(C)=O)CC2 [Compound 5b] | 2.13 ± 0.02 | 2.57 ± 0.13 | 2.07 ± 0.08 | 2.88 ± 0.47 | 4.92 ± 0.51 | – |
| C=Cc1ccc(COc2ccc3c(cc2=O)[C@@H](NC(C)=O)CCc2cc(OC)c(OC)c(OC)c2-3)cc1 [Compound 4j] | 3.05 ± 0.01 | 3.11 ± 0.03 | 3.22 ± 0.36 | 3.01 ± 0.04 | 5.17 ± 0.28 | – |
| COc1cc2c(c(OC)c1OC)-c1ccc(OCc3ccc(I)cc3)c(=O)cc1[C@@H](NC(C)=O)CC2 [Compound 4b] | 2.41 ± 0.66 | 2.85 ± 0.03 | 2.77 ± 0.19 | 2.83 ± 0.26 | 4.12 ± 0.01 | – |
| C/C=C/COc1ccc2c(cc1=O)[C@@H](NC(C)=O)CCc1cc(OC)c(OC)c(OC)c1-2 [Compound 4e] | 1.98 ± 0.05 | 1.93 ± 0.02 | 1.97 ± 0.04 | 1.92 ± 0.11 | 2.66 ± 0.03 | – |
| COc1cc2c(c(OC)c1OC)-c1ccc(OCc3cn(Cc4ccc(C#N)cc4)nn3)c(=O)cc1[C@@H](NC(C)=O)CC2 [Compound 6b] | 3.15 ± 0.04 | 3.74 ± 0.06 | 3.06 ± 0.03 | 3.97 ± 0.12 | 5.83 ± 0.31 | – |
| COc1cc2c(c(OC)c1OC)-c1ccc(=O)c(OCCCN=[N+]=[N-])cc1[C@@H](NC(C)=O)CC2 [Compound 3i] | 1.43 ± 0.02 | 1.88 ± 0.05 | 1.32 ± 0.05 | 1.05 ± 0.02 | 2.85 ± 0.13 | – |
| COc1cc2c(c(OC)c1OC)-c1ccc(OCc3ccccc3)c(=O)cc1[C@@H](NC(C)=O)CC2 [Compound 4a] | 2.26 ± 0.01 | 2.08 ± 0.01 | 2.01 ± 0.02 | 1.63 ± 0.03 | 4.12 ± 0.06 | – |
| COc1cc2c(c(OC)c1OC)-c1ccc(OCc3cn([C@@H]4O[C@H](COC(C)=O)[C@@H](OC(C)=O)[C@H](OC(C)=O)[C@H]4NC(C)=O)nn3)c(=O)cc1[C@@H](NC(C)=O)CC2 [Compound 6d] | 5.04 ± 0.02 | 5.83 ± 0.15 | 5.21 ± 0.39 | 5.93 ± 0.12 | 7.29 ± 0.41 | – |
| C=Cc1ccc(COc2cc3c(ccc2=O)-c2c(cc(OC)c(OC)c2OC)CC[C@@H]3NC(C)=O)cc1 [Compound 3j] | 4.59 ± 0.03 | 4.55 ± 0.06 | 4.19 ± 0.62 | 4.55 ± 0.07 | 5.38 ± 0.42 | – |
| COc1cc2c(c(OC)c1OC)-c1ccc(=O)c(OCc3cn(Cc4ccccc4)nn3)cc1[C@@H](NC(C)=O)CC2 [Compound 5a] | 3.21 ± 0.15 | 3.74 ± 0.19 | 3.07 ± 0.11 | 3.28 ± 0.06 | 5.28 ± 0.22 | – |
| COc1cc2c(c(OC)c1OC)-c1ccc(=O)c(O)cc1[C@@H](NC(C)=O)CC2 [Compound 2, colchiceine, reference compound] | – | – | – | – | – | IC50 [1]: 1.37 ± 0.02 nM; IC50 [2]: 1.26 ± 0.04 nM; IC50 [3]: 1.04 ± 0.07 nM; IC50 [4]: 1.88 ± 0.02 nM |
